Counter-ions that a name gives are not always drawn. Like-named read-outs stand apart in the source and are kept apart here.
Target: T1, recombinant human SIRT1 (Homo sapiens, UniProt Q96EB6)
T1 sequence (Q96EB6 1-747): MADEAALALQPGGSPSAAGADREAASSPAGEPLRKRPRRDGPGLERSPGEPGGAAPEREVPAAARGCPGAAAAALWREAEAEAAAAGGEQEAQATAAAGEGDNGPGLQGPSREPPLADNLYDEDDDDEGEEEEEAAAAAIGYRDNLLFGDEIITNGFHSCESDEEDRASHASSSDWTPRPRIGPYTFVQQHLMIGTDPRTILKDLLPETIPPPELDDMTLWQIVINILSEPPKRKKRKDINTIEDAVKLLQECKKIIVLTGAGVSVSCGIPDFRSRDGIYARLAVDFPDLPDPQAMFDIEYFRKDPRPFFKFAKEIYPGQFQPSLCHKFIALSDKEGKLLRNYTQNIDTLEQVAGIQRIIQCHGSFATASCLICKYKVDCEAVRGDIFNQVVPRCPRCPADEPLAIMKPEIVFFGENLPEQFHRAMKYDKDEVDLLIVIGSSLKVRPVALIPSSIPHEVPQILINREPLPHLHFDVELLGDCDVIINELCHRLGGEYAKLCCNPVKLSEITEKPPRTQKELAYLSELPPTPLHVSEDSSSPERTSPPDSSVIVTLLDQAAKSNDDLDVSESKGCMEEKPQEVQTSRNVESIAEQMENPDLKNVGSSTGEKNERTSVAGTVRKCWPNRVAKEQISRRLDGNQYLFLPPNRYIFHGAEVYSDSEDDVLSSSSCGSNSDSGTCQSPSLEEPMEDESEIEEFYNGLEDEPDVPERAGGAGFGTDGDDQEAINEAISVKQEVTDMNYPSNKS
Test: SIRT1 fluorescent deacetylation assay (p53-382 acetylated peptide substrate)
Type: biochemical

[1] = Supplementary Table 1, stilbenes and chalcones, 100 μM, 25 μM NAD+, 25 μM p53-382 acetylated peptide
[2] = Supplementary Table 2, flavones part I, 100 μM, 25 μM NAD+, 25 μM p53-382 acetylated peptide
[3] = Supplementary Table 7, miscellaneous compounds, 100 μM, 25 μM NAD+, 25 μM p53-382 acetylated peptide
[4] = Supplementary Table 6, free radical protective compounds, 100 μM, 25 μM NAD+, 25 μM p53-382 acetylated peptide
[5] = Supplementary Table 3, flavones part II, 100 μM, 25 μM NAD+, 25 μM p53-382 acetylated peptide
[6] = Supplementary Table 4, isoflavones, flavanones, anthocyanidins, 100 μM, 25 μM NAD+, 25 μM p53-382 acetylated peptide
[7] = Supplementary Table 8, compound at 10 μM, 25 μM NAD+, 25 μM p53-382 acetylated peptide
[8] = Table 12, resveratrol analogs, 100 μM, 25 μM NAD+, 25 μM p53-382 acetylated peptide
[9] = Table 13, resveratrol analogs, 100 μM, 25 μM NAD+, 25 μM p53-382 acetylated peptide
[10] = Table 10, resveratrol analogs, 100 μM, 25 μM NAD+, 25 μM p53-382 acetylated peptide
[11] = Supplementary Table 8, compound at 100 μM, 25 μM NAD+, 25 μM p53-382 acetylated peptide

In the case of `O=C(/C=C/c1ccccc1)c1ccccc1` [Chalcone], the “Ratio to Control Rate Mean ± SE” value [1] is reported as 1.34 ± 0.17.
In the case of `COc1ccc(/C=C/c2cc(O)cc(O[C@@H]3O[C@H](CO)[C@@H](O)[C@H](O)[C@H]3O)c2)cc1` [Deoxyrhapontin, 3,5-Dihydroxy-4′-methoxystilbene 3-O-β-D-glucoside], the “Ratio to Control Rate Mean ± SE” value [1] is reported as 1.94 ± 0.21.
For `O=c1c(O)c(-c2ccc(O)cc2)oc2cc(O)cc(O)c12` [Kaempferol, 3,5,7,4′-Tetrahydroxyflavone], the “Ratio to Control Rate Mean ± SE” value [2] was 3.55 ± 0.56.
`O=C(Nc1cccc(C(=O)Nc2ccc(S(=O)(=O)O)c3cc(S(=O)(=O)O)cc(S(=O)(=O)O)c23)c1)Nc1cccc(C(=O)Nc2ccc(S(=O)(=O)O)c3cc(S(=O)(=O)O)cc(S(=O)(=O)O)c23)c1` [NF023, reference compound] was tested, and the “Ratio to Control Rate Mean ± SE” value [3] was −0.0016.
With `Cc1c(C)c2c(c(C)c1O)CCC(C)(CN1CCN(c3cc(N4CCCC4)nc(N4CCCC4)n3)CC1)O2.Cl.Cl` (single isomer, unassigned; (-)) [Compound U-83836E, (−)-2-((4-(2,6-di-1-Pyrrolidinyl-4-pyrimidinyl)-1-piperazinyl)methyl)-3,4-dihydro-2,5,7,8-tetramethyl-2H-1-benzopyran-6-ol-2HCl, reference compound] the “Ratio to Control Rate Mean ± SE” value [4] was 1.030 ± 0.055.
For `COc1ccc(/C=C/c2cc(O)cc(O[C@@H]3O[C@H](CO)[C@@H](O)[C@H](O)[C@H]3O)c2)cc1O` [Rhapontin, 3,3′,5-Trihydroxy-4′-methoxystilbene 3-O-β-D-glucoside], the “Ratio to Control Rate Mean ± SE” value [1] was 1.40 ± 0.37.
`O=c1c(O)c(-c2ccc(O)cc2O)oc2cc(O)cc(O)c12` [Morin, 3,5,7,2′,4′-Pentahydroxyflavone] was tested, and the “Ratio to Control Rate Mean ± SE” value [5] was 1.461 ± 0.071.
In the case of `O=C1CC(c2ccc(O)cc2)Oc2cc(O)cc(O)c21` (stereo not drawn) [Naringenin, 5,7,4′-Trihydroxyflavanone], the “Ratio to Control Rate Mean ± SE” value [6] is reported as 2.10 ± 0.23.
In the case of `O=C1c2c(O)cc(O)cc2OC(c2ccc(O)c(O)c2)C1O` (stereo not drawn) [3,5,7,3′,4′-Pentahydroxyflavanone], the “Ratio to Control Rate Mean ± SE” value [6] is reported as 1.97 ± 0.22.
With `O=c1c(O)c(-c2ccc(O)c(O)c2)oc2ccc(O)cc12` [3,6,3′,4′-Tetrahydroxyflavone] the “Ratio to Control Rate Mean ± SE” value [2] was 5.45 ± 0.57.
`O=c1c(O)c(-c2ccc(O)c(O)c2)oc2c(O)c(O)cc(O)c12` [Gossypetin, 3,5,7,8,3′,4′-Hexahydroxyflavone] was tested, and the “Ratio to Control Rate Mean ± SE” value [5] was 0.723 ± 0.062.
`Cc1ccc(C(=O)Nc2ccc(S(=O)(=O)O)c3cc(S(=O)(=O)O)cc(S(=O)(=O)O)c23)cc1NC(=O)c1cccc(NC(=O)Nc2cccc(C(=O)Nc3cc(C(=O)Nc4ccc(S(=O)(=O)O)c5cc(S(=O)(=O)O)cc(S(=O)(=O)O)c45)ccc3C)c2)c1` [Suramin, reference compound] was tested, and the “Ratio to Control Rate Mean ± SE” value was −0.0002.
With `O=c1oc2cc(O)ccc2c2oc3cc(O)ccc3c12` [Coumestrol] the “Ratio to Control Rate Mean ± SE” value [7] was 2.30 ± 0.31.
`COCOc1cc(/C=C/c2ccc(SC)cc2)cc(OCOC)c1` [BML-226, 3,5-Dimethoxymethoxy-4′-thiomethyl-trans-stilbene] was tested, and the “Ratio to Control Rate Mean ± SE” value [8] was 2.316 ± 0.087.
With `Cl.O.O=C(O)CN(CCN(CC(=O)O)Cc1ccccc1O)Cc1ccccc1O` [HBED, N,N′-Di-(2-hydroxybenzyl)ethylenediamine-N,N′-diacetic acid.HCl.H2O, reference compound] the “Ratio to Control Rate Mean ± SE” value [4] was 1.150 ± 0.090.
With `C(=C\c1ccccc1)/c1ccccc1` [trans-Stilbene] the “Ratio to Control Rate Mean ± SE” value [1] was 1.48 ± 0.15.
For `O=C(Nc1ccccc1)c1cc(O)cc(O)c1` [BML-219, N-phenyl-(3,5-dihydroxy)benzamide], the “Ratio to Control Rate Mean ± SE” value [9] was 0.902 ± 0.014.
With `Oc1cccc(/C=C/c2ccccc2)c1` [3-Hydroxystilbene] the “Ratio to Control Rate Mean ± SE” value (Table 11, resveratrol analogs, 100 μM, 25 μM NAD+, 25 μM p53-382 acetylated peptide) was 2.357 ± 0.074.
In the case of `COc1ccc(/C=C/c2ccccc2)cc1OC` [3,4-Dimethoxy-trans-stilbene], the “Ratio to Control Rate Mean ± SE” value [8] is reported as 1.127 ± 0.019.
`O=C(Nc1ccc(C(=O)Nc2ccc(C(=O)Nc3ccc(S(=O)(=O)O)c4cc(S(=O)(=O)O)cc(S(=O)(=O)O)c34)cc2)cc1)Nc1ccc(C(=O)Nc2ccc(C(=O)Nc3ccc(S(=O)(=O)O)c4cc(S(=O)(=O)O)cc(S(=O)(=O)O)c34)cc2)cc1` [NF279, reference compound] was tested, and the “Ratio to Control Rate Mean ± SE” value [3] was 0.0035.
In the case of `O=[N+]([O-])c1ccc(/C=C/c2cc(O)cc(O)c2)cc1` [BML-229, 3,5-Dihydroxy-4′-nitro-trans-stilbene], the “Ratio to Control Rate Mean ± SE” value [10] is reported as 6.78 ± 0.22.
With `O=c1cc(-c2cc(O)c(O)c(O)c2)oc2cc(O)cc(O)c12` [5,7,3′4′,5′-Pentahydroxyflavone] the “Ratio to Control Rate Mean ± SE” value [2] was 6.05 ± 0.98.
For `Cc1c(C)c2c(c(C)c1O)CCC(C)(C(=O)O)O2` (stereo not drawn) [Trolox, 6-Hydroxy-2,5,7,8-tetramethylchroman-2-carboxylic acid, reference compound], the “Ratio to Control Rate Mean ± SE” value [4] was 0.995 ± 0.019.
In the case of `Oc1cc(O)c2cc(O)c(-c3cc(O)c(O)c(O)c3)[o+]c2c1.[Cl-]` [Delphinidin chloride, 3,5,7,3′,4′,5′-Hexahydroxyflavylium chloride], the “Ratio to Control Rate Mean ± SE” value [6] is reported as 0.4473 ± 0.0071.
With `O=c1cc(-c2ccccc2)oc2cccc(O)c12` [5-Hydroxyflavone] the “Ratio to Control Rate Mean ± SE” value [5] was 1.22 ± 0.19.
For `O=c1cc(-c2ccccc2)oc2cc(O)cc(O)c12` [5,7-Dihydroxyflavone], the “Ratio to Control Rate Mean ± SE” value [5] was 1.51 ± 0.18.
In the case of `O=C1CC(c2ccccc2)Oc2ccccc21` (stereo not drawn) [Flavanone], the “Ratio to Control Rate Mean ± SE” value [6] is reported as 1.92 ± 0.24.
In the case of `Nc1c(Br)cc(Br)cc1CN[C@H]1CC[C@H](O)CC1` [Ambroxol, trans-4-(2-Amino-3,5-dibromobenzylamino)cyclohexane.HCl, reference compound], the “Ratio to Control Rate Mean ± SE” value [4] is reported as 1.075 ± 0.0026.
For `O=c1cc(-c2ccc(O)cc2)oc2cc(O)ccc12` [7,4′-Dihydroxyflavone], the “Ratio to Control Rate Mean ± SE” value [2] was 1.91 ± 0.17.
With `CC(C)c1ccc(/C=C/c2cc(O)cc(O)c2)cc1` [BML-231, 3,5-Dihydroxy-4′-isopropyl-trans-stilbene] the “Ratio to Control Rate Mean ± SE” value [10] was 6.01 ± 0.15.
With Camptothecin [reference compound] the “Ratio to Control Rate Mean ± SE” value [7] was 2.92 ± 0.41.
In the case of `CC(=O)Nc1ccc(/C=C/c2cc(O)cc(O)c2)cc1` [BML-222, 3,5-Dihydroxy-4′-acetamide-trans-stilbene], the “Ratio to Control Rate Mean ± SE” value [8] is reported as 1.88 ± 0.11.
With `C(=C/c1ccccc1)/c1ccccc1` [cis-Stilbene] the “Ratio to Control Rate Mean ± SE” value [1] was 1.14 ± 0.29.
With `Cc1ccc(NC(=O)c2cccc(N(C)C)c2)cc1NC(=O)c1ccc(O)cc1` [ZM 336372, reference compound] the “Ratio to Control Rate Mean ± SE” value [11] was 3.5 ± 1.1.
For `O=C(/C=C/c1ccc(O)c(O)c1)c1c(O)cc(O)cc1O` [3,4,2′,4′,6′-Pentahydroxychalcone], the “Ratio to Control Rate Mean ± SE” value [1] was 2.80 ± 0.32.
For `O=C(/C=C/c1ccc(O)c(O)c1)Oc1ccccc1` [Caffeic Acid Phenyl Ester], the “Ratio to Control Rate Mean ± SE” value [4] was 1.80 ± 0.16.
With `Oc1ccc(CCc2cc(O)cc(O)c2)cc1` [Dihydroresveratrol, 1-(3,5-Dihydroxyphenyl)-2-(4-hydroxyphenyl) ethane] the “Ratio to Control Rate Mean ± SE” value [9] was 1.08 ± 0.14.
For `CSc1ccc(/C=C/c2cc(O)cc(O)c2)cc1` [BML-230, 3,5-Dihydroxy-4′-thiomethyl-trans-stilbene], the “Ratio to Control Rate Mean ± SE” value [10] was 6.84 ± 1.26.
For `O=c1ccc2cc(O)c(O)cc2o1` [Esculetin], the “Ratio to Control Rate Mean ± SE” value [7] was 1.737 ± 0.082.
With `CC(Cc1ccc(O)c(O)c1)C(C)Cc1ccc(O)c(O)c1` (stereo not drawn) [NDGA] the “Ratio to Control Rate Mean ± SE” value [11] was 1.738 ± 0.088.
With `CCCCCCCCCCCCC/C=C/[C@@H](O)[C@@H](N)CO` [Sphingosine] the “Ratio to Control Rate Mean ± SE” value (Supplementary Table 8, compound concentration not given, 25 μM NAD+, 25 μM p53-382 acetylated peptide) was 0.069 ± 0.028.
In the case of `Cc1ccc(/C=C/c2cc(O)cc(O)c2)cc1` [BML-228, 3,5-Dihydroxy-4′-methyl-trans-stilbene], the “Ratio to Control Rate Mean ± SE” value (Table 9, resveratrol analogs, 100 μM, 25 μM NAD+, 25 μM p53-382 acetylated peptide) is reported as 7.72 ± 0.12.

Source: patent US20060084135A1, “Compositions for manipulating the lifespan and stress response of cells and organisms” (priority 2003, published 2006)
